Tested on: 945468-187-T-J3-PDC spheroids with HUVEC/MSC, viability
Assay: Anticancer human tumor 945468-187-T-J3-PDC patient-derived rectal carcinoma cell line growth inhibition [PI3K]
Conditions: for IC50: curve of first compound; for viability, T/C: stronger effect = lower value
Outline: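 Tumor cells were combined with HUVEC and MSCs into spheroids, then dosed with PI3K-inhibitor combinations over half-log ranges capped near clinical Cmax or 10 microM.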

[1] = second compound 0.00316 µM, first compound 0.0316 µM
[2] = second compound 0.00316 µM, first compound 0.1 µM
[3] = second compound 0.00316 µM, first compound 0.316 µM
[4] = second compound 0.00316 µM, first compound 1 µM
[5] = second compound 0.00316 µM, first compound 3.16 µM
[6] = second compound 0.00316 µM, first compound 10 µM
[7] = second compound 0.01 µM, first compound 0.0316 µM
[8] = second compound 0.01 µM, first compound 0.1 µM
[9] = second compound 0.01 µM, first compound 0.316 µM
[10] = second compound 0.01 µM, first compound 1 µM
[11] = second compound 0.01 µM, first compound 3.16 µM
[12] = second compound 0.01 µM, first compound 10 µM
[13] = second compound 0.0316 µM, first compound 0.0316 µM
[14] = second compound 0.0316 µM, first compound 0.1 µM
[15] = second compound 0.0316 µM, first compound 0.316 µM
[16] = second compound 0.0316 µM, first compound 1 µM
[17] = second compound 0.0316 µM, first compound 3.16 µM
[18] = second compound 0.0316 µM, first compound 10 µM
[19] = second compound 0.1 µM, first compound 0.0316 µM
[20] = second compound 0.1 µM, first compound 0.1 µM
[21] = second compound 0.1 µM, first compound 0.316 µM
[22] = second compound 0.1 µM, first compound 1 µM
[23] = second compound 0.1 µM, first compound 3.16 µM
[24] = second compound 0.1 µM, first compound 10 µM
[25] = second compound 0.316 µM, first compound 0.0316 µM
[26] = second compound 0.316 µM, first compound 0.1 µM
[27] = second compound 0.316 µM, first compound 0.316 µM
[28] = second compound 0.316 µM, first compound 1 µM
[29] = second compound 0.316 µM, first compound 3.16 µM
[30] = second compound 0.316 µM, first compound 10 µM
[31] = second compound 1 µM, first compound 0.0316 µM
[32] = second compound 1 µM, first compound 0.1 µM
[33] = second compound 1 µM, first compound 0.316 µM
[34] = second compound 1 µM, first compound 1 µM
[35] = second compound 1 µM, first compound 3.16 µM
[36] = second compound 1 µM, first compound 10 µM
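Note: spheroids exposed to agents for 7 days before viability read.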
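Throughout, for viability, T/C: 100% = DMSO vehicle control viability.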

CC1(C)CCC(CN2CCN(c3ccc(C(=O)NS(=O)(=O)c4ccc(NCC5CCOCC5)c([N+](=O)[O-])c4)c(Oc4cnc5[nH]ccc5c4)c3)CC2)=C(c2ccc(Cl)cc2)C1 + COc1c(OCCCN2CCOCC2)ccc2c3n(c(=NC(=O)c4cnc(N)nc4)nc12)CCN3
IC50 (second compound 0.00316 µM): 6.06 µM | IC50 (second compound 0.01 µM): 6.08 µM | IC50 (second compound 0.0316 µM): 6.29 µM | IC50 (second compound 0.1 µM): 1.11 µM | IC50 (second compound 0.316 µM): < 0.0316 µM | IC50 (second compound 1 µM): < 0.0316 µM | viability, T/C [1]: 93.4% | viability, T/C [2]: 106% | viability, T/C [3]: 117% | viability, T/C [4]: 91.1% | viability, T/C [5]: 116% | viability, T/C [6]: 8% | viability, T/C [7]: 103% | viability, T/C [8]: 90.8% | viability, T/C [9]: 93.1% | viability, T/C [10]: 97.3% | viability, T/C [11]: 119% | viability, T/C [12]: 11.3% | viability, T/C [13]: 107% | viability, T/C [14]: 94% | viability, T/C [15]: 114% | viability, T/C [16]: 98.1% | viability, T/C [17]: 106% | viability, T/C [18]: 13.7% | viability, T/C [19]: 54% | viability, T/C [20]: 43.4% | viability, T/C [21]: 50.4% | viability, T/C [22]: 53% | viability, T/C [23]: 48.5% | viability, T/C [24]: 8.54% | viability, T/C [25]: 22.1% | viability, T/C [26]: 20.7% | viability, T/C [27]: 18.1% | viability, T/C [28]: 24.3% | viability, T/C [29]: 25.7% | viability, T/C [30]: 5.28% | viability, T/C [31]: 16.7% | viability, T/C [32]: 17.9% | viability, T/C [33]: 17.8% | viability, T/C [34]: 19.7% | viability, T/C [35]: 17.7% | viability, T/C [36]: 3.81%

CCCS(=O)(=O)Nc1ccc(F)c(C(=O)c2c[nH]c3ncc(-c4ccc(Cl)cc4)cc23)c1F + COc1c(OCCCN2CCOCC2)ccc2c3n(c(=NC(=O)c4cnc(N)nc4)nc12)CCN3
IC50 (second compound 0.00316 µM): > 10 µM | IC50 (second compound 0.01 µM): > 10 µM | IC50 (second compound 0.0316 µM): 7.31 µM | IC50 (second compound 0.1 µM): < 0.0316 µM | IC50 (second compound 0.316 µM): < 0.0316 µM | IC50 (second compound 1 µM): < 0.0316 µM | viability, T/C [1]: 106% | viability, T/C [2]: 81% | viability, T/C [3]: 88.9% | viability, T/C [4]: 77.7% | viability, T/C [5]: 87.2% | viability, T/C [6]: 52.3% | viability, T/C [7]: 86.6% | viability, T/C [8]: 77.3% | viability, T/C [9]: 86.2% | viability, T/C [10]: 87.7% | viability, T/C [11]: 95.8% | viability, T/C [12]: 74.2% | viability, T/C [13]: 83.8% | viability, T/C [14]: 89.4% | viability, T/C [15]: 79.1% | viability, T/C [16]: 89.6% | viability, T/C [17]: 86.1% | viability, T/C [18]: 36.7% | viability, T/C [19]: 42.2% | viability, T/C [20]: 48.9% | viability, T/C [21]: 38.2% | viability, T/C [22]: 43.6% | viability, T/C [23]: 28.7% | viability, T/C [24]: 8.36% | viability, T/C [25]: 18.8% | viability, T/C [26]: 20.2% | viability, T/C [27]: 20.1% | viability, T/C [28]: 22.2% | viability, T/C [29]: 20.9% | viability, T/C [30]: 7.04% | viability, T/C [31]: 15.5% | viability, T/C [32]: 16.1% | viability, T/C [33]: 18.2% | viability, T/C [34]: 18.5% | viability, T/C [35]: 15.2% | viability, T/C [36]: 6.57%

CNC(=O)c1ccc(N2C(=S)N(c3ccc(C#N)c(C(F)(F)F)c3)C(=O)C2(C)C)cc1F + COc1c(OCCCN2CCOCC2)ccc2c3n(c(=NC(=O)c4cnc(N)nc4)nc12)CCN3
IC50 (second compound 0.00316 µM): > 10 µM | IC50 (second compound 0.01 µM): > 10 µM | IC50 (second compound 0.0316 µM): > 10 µM | IC50 (second compound 0.1 µM): < 0.0316 µM | IC50 (second compound 0.316 µM): < 0.0316 µM | IC50 (second compound 1 µM): < 0.0316 µM | viability, T/C [1]: 102% | viability, T/C [2]: 94.3% | viability, T/C [3]: 98.5% | viability, T/C [4]: 84.6% | viability, T/C [5]: 98.2% | viability, T/C [6]: 99.9% | viability, T/C [7]: 98.9% | viability, T/C [8]: 97.1% | viability, T/C [9]: 90% | viability, T/C [10]: 95.2% | viability, T/C [11]: 100% | viability, T/C [12]: 117% | viability, T/C [13]: 101% | viability, T/C [14]: 103% | viability, T/C [15]: 96.7% | viability, T/C [16]: 104% | viability, T/C [17]: 111% | viability, T/C [18]: 98% | viability, T/C [19]: 44.1% | viability, T/C [20]: 39.7% | viability, T/C [21]: 46.2% | viability, T/C [22]: 53.9% | viability, T/C [23]: 64.6% | viability, T/C [24]: 51.5% | viability, T/C [25]: 25.1% | viability, T/C [26]: 26.6% | viability, T/C [27]: 22.8% | viability, T/C [28]: 23.4% | viability, T/C [29]: 28.4% | viability, T/C [30]: 28.5% | viability, T/C [31]: 17.5% | viability, T/C [32]: 21.3% | viability, T/C [33]: 14.4% | viability, T/C [34]: 21.6% | viability, T/C [35]: 17.8% | viability, T/C [36]: 16.9%

Reference: PubChem BioAssay AID1963968 (Molecular Pharmacology Branch, DTP, NCI, 2024)
